From ChEMBL document CHEMBL6182852, “Discovery of ATP competitive PDHK1/2 dual inhibitors” (Bioorg Med Chem Lett, 2025) come the findings set out here.

Assay [1] can be described thus: Cytotoxicity against human PBMC cells.
The nature of assay [2]: Inhibition of LPS-induced TNF release in human PBMC cells. In kind it is functional, cell-based.
In assay [3] the target is [Pyruvate dehydrogenase (acetyl-transferring)] kinase isozyme 2, mitochondrial (Homo sapiens, UniProt Q15119). Description: Inhibition of PDHK2 (unknown origin).
Assay [4] is described as follows: Inhibition of E1 PDHK (unknown origin) phosphorylation at S232 residues. More on the design: species or system Homo sapiens.
Assay [5] deals with [Pyruvate dehydrogenase (acetyl-transferring)] kinase isozyme 1, mitochondrial (Homo sapiens, UniProt Q15118). Description: Inhibition of PDHK1 (unknown origin) in presence of 0.5 uM ATP.
[Pyruvate dehydrogenase (acetyl-transferring)] kinase isozyme 1, mitochondrial, sequence (Q15118 whole entry): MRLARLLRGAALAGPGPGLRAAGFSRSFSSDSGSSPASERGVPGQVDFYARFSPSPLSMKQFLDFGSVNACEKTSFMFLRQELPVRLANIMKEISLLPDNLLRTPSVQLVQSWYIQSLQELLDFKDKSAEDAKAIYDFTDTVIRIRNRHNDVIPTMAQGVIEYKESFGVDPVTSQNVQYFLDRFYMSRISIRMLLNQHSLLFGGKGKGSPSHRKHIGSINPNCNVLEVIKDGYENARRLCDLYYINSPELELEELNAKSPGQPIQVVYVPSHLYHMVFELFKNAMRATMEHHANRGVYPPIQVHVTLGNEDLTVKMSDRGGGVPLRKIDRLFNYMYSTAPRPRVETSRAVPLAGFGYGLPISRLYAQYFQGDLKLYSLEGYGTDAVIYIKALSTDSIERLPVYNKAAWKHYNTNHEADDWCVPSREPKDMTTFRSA

One may read the CC50 as the concentration at which the toxic effect on the cells reaches its halfway point. Low readings indicate greater toxicity to the cells, high ones lower toxicity to the cells. The term IC50 denotes the concentration that gives 50% inhibition. `CCNc1cc(F)cc2c1[nH]c(=O)n2-c1c(C)cc(Oc2cccc(C(=O)O)c2)cc1Cl`: in assay [1], the CC50 was above 100 µM. Moreover, the values for the 50% inhibitory concentration (IC50) in assay [2], in assay [3] and in assay [4] were 71 µM, 0.034 µM and above 100 µM, respectively.
`CSc1cc(-c2nccs2)n[nH]1`: in assay [5], the 50% inhibitory concentration (IC50) was above 100 µM.
Turning to `CCNc1cc(F)cc2c1[nH]c(=O)n2-c1ccc(Oc2cccc(S(=O)(=O)F)c2)cc1`, the cytotoxic concentration (CC50) in assay [1] is above 100 µM. Besides, the concentration for half-maximal inhibition (IC50) in assay [2] was 24.5 µM; in assay [3], 0.12 µM; in assay [4] it was 5.3 µM.
Compound `CCNc1cc(F)cc2c1NC(=O)C2(C)N1CCC[C@@H](Nc2ccc(C(=O)O)c(Cl)c2)C1` (stereo partly drawn) displayed a 50% cytotoxic concentration (CC50) in assay [1] above 100 µM. The same compound had an IC50 in assay [2] above 100 µM.
Compound `CCNc1cc(F)cc2c1NC(=O)C2(CC)N1CCC[C@@H](NC(=O)C2CC3(C2)CN(C#N)C3)C1` (mixture of isomers) yielded a CC50 in assay [1] above 100 µM. The half-maximal inhibitory concentration (IC50) in assay [2] was found to be 0.9 µM; in assay [3], 0.015 µM.
For `CCNc1cc(F)cc2c1NC(=O)C2(C)N1CCC[C@@H](Nc2ccc(C#N)nc2)C1` (mixture of isomers), the midpoint of cytotoxicity in assay [1], the CC50, lay at 56.9 µM. The same compound showed an IC50 in assay [2] of 4.5 µM.
Regarding `CCNc1cc(F)cc2c1NC(=O)C2(C)N1CCCCC1` (racemic), the CC50 in assay [1] is above 100 µM. Further, in assay [2], inhibition was half-maximal at 49 µM (IC50).
